“And” between values parts separate entries of the source, which are not always exact repeats. Identical values can stand only once.
Experiments:
[1] = test system: HFHSD-fed obese C57BL6/J mice; assay: Body weight / diet-induced obesity in HFHSD-fed mice; type: in vivo, mouse; settings: for Body weight, Avg: BPRPT0245 100 mg/kg/day (Figure 5J); for Body weight, Avg / Body weight, Average / Body weight (individual mouse): in g (unit assumed); for Body weight, Average / Body weight (individual mouse): Figure 5J; for Body weight, Average: 100 mg/kg/day; for Body weight (individual mouse): BPRPT0245 group
[2] = test system: HFHSD-fed obese C57BL6/J mice; assay: Intraperitoneal glucose tolerance test (ipGTT); type: in vivo, mouse; design: Figure 2H Average (glucose, ipGTT) / ipGTT / ipGTT glucose, Average / Blood glucose during glucose tolerance test (Figure 5L), Average: unit not given here; settings: for ipGTT glucose, Average: BPRPT0245 100 mg/kg/day, group average (Figure 5L); for ipGTT glucose, individual mice: individual mouse values (Figure 5L, sheet BPRPT0245), in mg/dL (unit assumed)
Description: (§1) Glucose tolerance was evaluated by the oral (OGTT) and intraperitoneal glucose tolerance test (ipGTT) after a 6-h fast. For the OGTT, glucose water (1 mg/g) was given by oral gavage, and tail blood glucose was measured with a glucometer (ACCU-CHEK Performa, Roche) at 0, 15, 30, 45, 60, 90, and 120 min. For the ipGTT, tail blood glucose was measured at 0, 15, 30, 45, 60, 90, and 120 min after intraperitoneal injection of glucose water (1 mg/g). For the insulin tolerance test (ITT), mice were fasted for 4 h and then injected intraperitoneally with 1 U/kg of insulin (Humulin R, Eli Lilly). Tail blood glucose was measured at 0, 15, 30, 45, 60, 90, 120, and 180 min.

[3] = test system: differentiated 3T3-L1 adipocytes; assay: Insulin-stimulated glucose uptake assay by (3H)2-deoxyglucose; type: cell-based, mouse; settings: differentiated 3T3-L1 adipocytes
[4] = test system: HFHSD-fed obese C57BL6/J mice; assay: Insulin tolerance test (ITT); type: in vivo, mouse; design: Figure 2I Average (glucose, ITT) / ITT / ITT glucose, Average / Blood glucose during insulin tolerance test (Figure 5M), Average: unit not given here; settings: for ITT glucose, Average: BPRPT0245 100 mg/kg/day, group average (Figure 5M); for ITT glucose, individual mice: individual mouse values (Figure 5M, sheet BPRPT0245), in mg/dL (unit assumed)
Description: as §1

[5] = test system: HFHSD-fed obese C57BL6/J mice; assay: Body composition (fat mass, lean mass, free water, total water); type: in vivo, mouse; design: Fat mass (Figure 5O) / lean mass (Figure 5O) / Free fluid (Figure 5O): unit not given beside the values
[6] = 100 mg/kg/day oral, HFHSD-fed mice, vs vehicle

## Cc1[nH]c2nc(C(C)N3CCN(c4ccccc4)CC3)nn2c(=O)c1Cc1ccc(F)cc1 (stereo not shown) [BPRPT0245]
[1]; [6]
  diet-induced obesity (body weight): significantly prevented diet-induced obesity
[1]; time point 0
  Body weight, Avg: 30.59
[1]; time point 1
  Body weight, Avg: 31.2
[1]; time point 2
  Body weight, Avg: 31.673
[1]; time point 3
  Body weight, Avg: 32.167
[1]; time point 4
  Body weight, Avg: 32.92
[1]; time point 5
  Body weight, Avg: 32.837
[1]; time point 6
  Body weight, Avg: 33.673
[1]; time point 7
  Body weight, Avg: 33.323
[1]; time point 8
  Body weight, Avg: 33.923
[1]; time point 9
  Body weight, Avg: 34.59
[1]; time point 10
  Body weight, Avg: 35.623
[1]; time point 11
  Body weight, Avg: 36.193
[1]; time point 12
  Body weight, Avg: 37.113
[1]; time point 13
  Body weight, Avg: 36.957
[1]; time point 14
  Body weight, Avg: 38.33
[1]; time point 15
  Body weight, Avg: 38.607
[1]; time point 16
  Body weight, Avg: 39.303
[1]; time point 17
  Body weight, Avg: 40.533
[1]; time point 18
  Body weight, Avg: 40.933
[1]; time point 19
  Body weight, Avg: 42.11
[1]; time point 20
  Body weight, Avg: 41.483
[1]; time point 21
  Body weight, Avg: 42.933
[1]; time point 22
  Body weight, Avg: 43.33
[1]; time point 23
  Body weight, Avg: 44.06
[1]; time point 24
  Body weight, Avg: 44.36
[1]; time point 25
  Body weight, Avg: 45.28
[1]; week 0
  Body weight, Average: 30.59
  Body weight (individual mouse): 30 and 33.8 and 29.8 and 28.35
[1]; week 1
  Body weight, Average: 31.2
  Body weight (individual mouse): 30.45 and 34.45 and 30.15 and 29.55
[1]; week 2
  Body weight, Average: 31.6733
  Body weight (individual mouse): 31.05 and 34.25 and 30.6 and 30.25
[1]; week 3
  Body weight, Average: 32.1667
  Body weight (individual mouse): 31.8 and 34.4 and 30.9 and 31.9
[1]; week 4
  Body weight, Average: 32.92
  Body weight (individual mouse): 32.8 and 36.5 and 31.8 and 33.15
[1]; week 5
  Body weight, Average: 32.8367
  Body weight (individual mouse): 34.2 and 36 and 31.6
[1]; week 6
  Body weight, Average: 33.6733
  Body weight (individual mouse): 34.5 and 37.15 and 31.9
[1]; week 7
  Body weight, Average: 33.3233
  Body weight (individual mouse): 31.45 and 36.9 and 31.75
[1]; week 8
  Body weight, Average: 33.9233
  Body weight (individual mouse): 34.8 and 36.35 and 31.55
[1]; week 9
  Body weight, Average: 34.59
  Body weight (individual mouse): 35.75 and 38 and 32.05 and 35.25
[1]; week 10
  Body weight, Average: 35.6233
  Body weight (individual mouse): 38.1 and 37.65 and 32.65 and 35.65
[1]; week 11
  Body weight, Average: 36.1933
  Body weight (individual mouse): 39.55 and 38.45 and 32.7 and 35.65
[1]; week 12
  Body weight, Average: 37.1133
  Body weight (individual mouse): 40.35 and 39.35 and 33.6 and 37.1
[1]; week 13
  Body weight, Average: 36.9567
  Body weight (individual mouse): 40.15 and 39.25 and 33.15 and 37.05
[1]; week 14
  Body weight, Average: 38.33
  Body weight (individual mouse): 42.7 and 39.9 and 33.45 and 38.65
[1]; week 15
  Body weight, Average: 38.6067
  Body weight (individual mouse): 43.6 and 39.65 and 33.2 and 38.2
[1]; week 16
  Body weight, Average: 39.3033
  Body weight (individual mouse): 45.5 and 40.05 and 32.8 and 39.05
[1]; week 17
  Body weight, Average: 40.5333
  Body weight (individual mouse): 47.45 and 41.6 and 33.85 and 39.8
[1]; week 18
  Body weight, Average: 40.9333
  Body weight (individual mouse): 47.8 and 41.55 and 34.1 and 40.8
[1]; week 19
  Body weight, Average: 42.11
  Body weight (individual mouse): 50.9 and 42.65 and 34.9 and 42.2
[1]; week 20
  Body weight, Average: 41.4833
  Body weight (individual mouse): 50.45 and 41.95 and 34.25 and 41.75
[1]; week 21
  Body weight, Average: 42.9333
  Body weight (individual mouse): 52.5 and 42.9 and 35.35 and 43.3
[1]; week 22
  Body weight, Average: 43.33
  Body weight (individual mouse): 53.9 and 43.35 and 35.75 and 44.95
[1]; week 23
  Body weight, Average: 44.06
  Body weight (individual mouse): 55.05 and 46.1 and 36.75 and 45.25
[1]; week 24
  Body weight, Average: 44.36
  Body weight (individual mouse): 50.35 and 46.35 and 37 and 46.4
[1]; week 25
  Body weight, Average: 45.28
  Body weight (individual mouse): 54.2 and 47.6 and 36.05 and 48.2
[2]; 0 minute
  ipGTT glucose, Average: 153.667
  ipGTT glucose, individual mice: 129 and 127 and 202 and 168 and 162 and 152 and 179 and 142 and 147 and 175 and 150 and 108 and 169
[2]; [6]
  glucose tolerance (ipGTT): improved glucose tolerance
[2]; 15 minute
  ipGTT glucose, Average: 305
  ipGTT glucose, individual mice: 325 and 328 and 302 and 300 and 251 and 345 and 316 and 291 and 297 and 290 and 312 and 319 and 271 and 303
[2]; 30 minute
  ipGTT glucose, Average: 285.933
  ipGTT glucose, individual mice: 318 and 250 and 316 and 269 and 323 and 308 and 260 and 273 and 295 and 280 and 325 and 283 and 289 and 215 and 285
[2]; 45 minute
  ipGTT glucose, Average: 242.333
  ipGTT glucose, individual mice: 261 and 181 and 275 and 209 and 208 and 318 and 231 and 278 and 227 and 225 and 336 and 288 and 173 and 200
[2]; 60 minute
  ipGTT glucose, Average: 219.733
  ipGTT glucose, individual mice: 262 and 155 and 167 and 252 and 207 and 264 and 223 and 275 and 201 and 277 and 228 and 194 and 179 and 205
[2]; 90 minute
  ipGTT glucose, Average: 192.133
  ipGTT glucose, individual mice: 204 and 144 and 134 and 174 and 173 and 260 and 232 and 213 and 160 and 193 and 231 and 169 and 117 and 218
[2]; 120 minute
  ipGTT glucose, Average: 185.4
  ipGTT glucose, individual mice: 218 and 166 and 140 and 179 and 201 and 221 and 215 and 198 and 168 and 199 and 217 and 208 and 174 and 111
[3]
  insulin-stimulated glucose uptake: augmented insulin-stimulated glucose uptake of differentiated 3T3-L1 adipocytes
[4]; 0 minutes
  ITT glucose, Average: 210.867
  ITT glucose, individual mice: 210 and 207 and 221 and 237 and 223 and 175 and 211 and 215 and 171 and 203 and 242 and 227 and 190
[4]; [6]
  insulin sensitivity (ITT): improved
[4]; 15 minutes
  ITT glucose, Average: 143.067
  ITT glucose, individual mice: 156 and 120 and 180 and 189 and 164 and 136 and 112 and 129 and 113 and 144 and 148 and 135 and 145
[4]; 30 minutes, 100 mg/kg/day
  ITT glucose, Average: 94.067 and 94.0667
[4]; 30 minutes
  ITT glucose, individual mice: 106 and 97 and 111 and 100 and 102 and 82 and 74 and 96 and 105 and 107 and 84 and 69 and 88
[4]; 45 minutes, 100 mg/kg/day
  ITT glucose, Average: 78.667 and 78.6667
[4]; 45 minutes
  ITT glucose, individual mice: 95 and 77 and 90 and 86 and 83 and 78 and 69 and 70 and 74 and 85 and 61 and 71
[4]; 60 minutes
  ITT glucose, Average: 69.8
  ITT glucose, individual mice: 65 and 78 and 72 and 69 and 82 and 52 and 61 and 71 and 75 and 90 and 68 and 59
[4]; 90 minutes, 100 mg/kg/day
  ITT glucose, Average: 59.667 and 59.6667
[4]; 90 minutes
  ITT glucose, individual mice: 57 and 51 and 69 and 75 and 72 and 54 and 65 and 46 and 45 and 59 and 84 and 67 and 53
[4]; 120 minutes, 100 mg/kg/day
  ITT glucose, Average: 71.467 and 71.4667
[4]; 120 minutes
  ITT glucose, individual mice: 61 and 65 and 87 and 74 and 76 and 66 and 70 and 69 and 114 and 57 and 56
[4]; 180 minutes, 100 mg/kg/day
  ITT glucose, Average: 90.933 and 90.9333
[4]; 180 minutes
  ITT glucose, individual mice: 83 and 84 and 113 and 70 and 94 and 69 and 85 and 73 and 98 and 104 and 130 and 99 and 76
[5]; [6]
  body composition: fat mass: marginally significantly reduced fat mass
  fluid retention (body composition): did not cause fluid retention
[5]; individual animals
  Fat mass (Figure 5O): 18.94 and 14.08 and 8.33 and 20.43 and 12.66 and 22.41 and 12.99 and 8.39 and 11.25 and 10.06
  Free fluid (Figure 5O): 3.62 and 3.13 and 2.31 and 3.61 and 2.85 and 4.07 and 3.08 and 2.76 and 3.02 and 2.68
  lean mass (Figure 5O): 26.38 and 24.44 and 20.16 and 22.44 and 28.07 and 22.14 and 23.04 and 23.87 and 21.38
[5]; individual animals, in g (unit assumed)
  Total water (Figure 5O): 24.73 and 22.68 and 18.44 and 23.16 and 20.8 and 26.52 and 20.79 and 21.19 and 22.12 and 19.78
